Experimental data reported in patent US20020001582A1, “Methods and compositions for inhibiting microbial growth” (priority 1999, published 2002).

What was measured:
[1] = test system: Curvularia (Poa) (IM094); assay: Minimum effective treatment concentration, fungal plug in 1/5 potato dextrose broth; assay type: cell-based
Method: (§1) Fungal cultures isolated from turfgrass were collected from different sources including B.C. Ministry of Agriculture, Fisheries and Food and ATCC.
(§2) ⅕ potato dextrose broth was prepared and autoclaved in Erlenmeyer flasks and allowed to cool. Different amounts of egg white lysozyme (Canadian Inovatech, Inc., B.C.) was weighed out and added directly into the flasks. Ten milliliters of broth was dispensed into sterile petri dishes.
(§3) A fungal square (“plug”) of each culture was cut and placed in/near the center of each plate. The petri dishes were then incubated at 22-25° C. During incubation, the petri dishes were evaluated individually by measuring the diameter of fungal growth.

[2] = test system: Fusarium (IM095, Turfgrass isolate); assay: as above; assay type: cell-based
Method: as §1, §2, §3

[3] = test system: Gaeumannomyces graminis 97-923 (IM099); assay: as above; assay type: cell-based
Method: as §1, §2, §3

[4] = test system: Gaeumannomyces graminis 97-923 (IM100); assay: as above; assay type: cell-based
Method: as §1, §2, §3

[5] = test system: Gaeumannomyces graminis var.avenae (IM084); assay: as above; assay type: cell-based
Method: as §1, §2, §3

[6] = test system: Rhizoctonia solani (IM085); assay: as above; assay type: cell-based
Method: as §1, §2, §3

[7] = test system: Rhizoctonia spp. (IM079); assay: as above; assay type: cell-based
Method: as §1, §2, §3

[8] = test system: Sclerotinia homoeocarpa (IM088); assay: as above; assay type: cell-based
Method: as §1, §2, §3

[9] = test system: Typhula incarnata (IM086); assay: as above; assay type: cell-based
Method: as §1, §2, §3

[10] = test system: G. graminis; assay: Suppression of fungal disease on young bentgrass, greenhouse trial; assay type: in vivo; settings: 5,000 and 10,000 ppm
Method: (§4) Creeping bentgrass (Agrotis spp.) cv. Penncross was used as the host in the greenhouse trials. This species is widely used in golf greens and is easily managed under greenhouse conditions. Bentgrass was seeded in 6 cm diameter and 5 cm height pots (made from PVC pipes) containing steam sterilized river washed sand. A seeding rate of 0.1 g/pot was used to ensure rapid establishment of a uniform, dense stand. Throughout the experiment, the grass was regularly watered, fertilized and maintained at a cutting height approximately 2.0 cm above the soil surface.
(§5) Virulent isolates of test fungi were grown on a rye grain medium for approximately one week. This medium consisted of 50 g of rye grain, 1 g of CaCO3, and 75 ml of water. It was prepared in a 250 ml Erlenmeyer flask and autoclaved for 30 minutes. Three to five plugs of the actively growing mycelia from week old cultures on potato dextrose agar were transferred into flasks, and incubated in the dark at room temperature.
(§6) Pots of eight-week-old bentgrass were inoculated with the test fungi by placing 2-3 kernels of infected rye in the center of the grass area, just above the soil surface. After inoculation, pots were placed in humidity chambers on a greenhouse bench. Temperature during incubation was maintained at 27-30° C. for disease development and the growth of the test fungi.
(§7) Approximately 1.6-2.4 ml was applied to each pot and the treatment was repeated 24 hours later. Untreated bentgrass was used as a control. All treatments were replicated 8 times and arranged in a completely randomized design. This trial was repeated three times.

[11] = test system: S. homoeocarpa; assay: as above; assay type: in vivo
Method: as §4, §5, §6, §7

[12] = test system: M. nivale; assay: as above; assay type: in vivo, M. nivale on creeping bentgrass (Agrotis spp.) cv. Penncross; settings: 5,000 and 10,000 ppm
Method: as §4, §5
as §6, with “fungi. […]” for “fungi.”

[13] = test system: Sclerotinia homoeocarpa; assay: Suppressive treatment of mature bentgrass (lysozyme 24 and 48 hours after inoculation); assay type: in vivo; settings: day 7, 14 or 21, except 5,000 ppm on day 21
Method: One year old bentgrass (Agrotis spp.) cv Pennlink was used as the host in this trial. It was grown in an open field at Select Sand Farm in Fort Langley, B.C. Round pieces of turfgrass, 6 cm diameter, were cut out and placed on 5 cm high pots (made from PVC pipes) containing steam sterilized river washed sand. The potted grass was regularly watered, fertilized and maintained at a cutting height of approximately 2.0 cm above the soil surface.
The efficacy of egg white lysozyme was tested on Sclerotinia homoeocarpa. Virulent isolates of the test fungi were grown on a rye grain medium for approximately one week. This medium consisted of 50 g of rye grain, 1 g of CaCO3, and 75 ml of water. The medium was prepared in a 250 ml Erlenmeyer flask and autoclaved for 30 minutes. Three to five plugs of the actively growing mycelia from one-week-old culture on potato dextrose agar were transferred into flasks, and incubated in the dark at room temperature.
In a second test three weeks after it was potted, the bentgrass was first inoculated with the test fungi by placing 3 infected rye kernels in the center of the pot, just above the soil surface. After inoculation, the pots were placed in humidity chambers on a greenhouse bench. Temperature during incubation was maintained at 27-30° C. for disease development. […]
Pots were removed from the humidity chamber and evaluated individually for disease severity. […]

[14] = test system: Sclerotinia homoeocarpa; assay: Inhibition of Sclerotinia homoeocarpa in potato dextrose broth (area of growth); assay type: cell-based; settings: 2 weeks after the inoculation
Method: Potato dextrose broth was prepared. Fifty ml of the PD broth was added into 100 ml dilution bottles, autoclaved and cooled to room temperature. Various amounts of lysozyme, chitosan, polylysine and avidin were weighed into the bottles. Ten ml of the PD broth with or without the antimicrobials was transferred into sterile petri dishes. A plug of Sclerotinia homoeocarpa (about 6-10 mm square) grown on PD agar was placed into the center of each petri dish. These treatments were all done in triplicates. Fungal growth was monitored by measuring the area of the growth.

[15] = test system: Fusarium; assay: Lysozyme against Fusarium inoculated from liquid broth; assay type: cell-based
Method: PD broth was prepared and autoclaved in dilution bottles (100 ml) and allowed to cool. Various amounts of lysozyme were added into the bottles and dissolved. […] One ml of Fusarium broth was transferred into each dish and the contents were mixed well. The plates were incubated at room temperature for 2 weeks. The trial was carried out in triplicate and was repeated three times. Pictures of the fungi were taken daily using a digital camera and the data was transferred on to the computer and processed.

Substance: lysozyme: type c egg white lysozyme, enzyme of approximately 129 amino acids; commercially available from Canadian Inovatech, Inc.
- Comment ([1]; 1000 ppm, 21 day): Fair-good
- Minimum effective treatment concentration of lysozyme ([1]; duration of trial 21 day): 1000 ppm
- Comment ([2]; 250 ppm, 25 day): Excellent
- Minimum effective treatment concentration of lysozyme ([2]; duration of trial 25 day): 250 ppm
- Comment ([3]; 1000 ppm, 21 day): Excellent
- Minimum effective treatment concentration of lysozyme ([3]; duration of trial 21 day): 1000 ppm
- Comment ([4]; 1000 ppm, 21 day): Excellent
- Minimum effective treatment concentration of lysozyme ([4]; duration of trial 21 day): 1000 ppm
- Comment ([5]; 500 ppm, 13 day): Excellent
- Minimum effective treatment concentration of lysozyme ([5]; duration of trial 13 day): 500 ppm
- Comment ([6]; 250 ppm, 13 day): Fair-good
- Minimum effective treatment concentration of lysozyme ([6]; duration of trial 13 day): 250 ppm
- Comment ([7]; 150 ppm, 38 day): Excellent
- Minimum effective treatment concentration of lysozyme ([7]; duration of trial 38 day): 150 ppm
- Comment ([8]; 1000 ppm, 21 day): Fair-good
- Minimum effective treatment concentration of lysozyme ([8]; duration of trial 21 day): 1000 ppm
- Comment ([9]; 1000 ppm, 21 day): Excellent
- Minimum effective treatment concentration of lysozyme ([9]; duration of trial 21 day): 1000 ppm
- control against G. graminis [10]: good control
- S. homoeocarpa inhibition compared to the untreated control ([11]; 2,500, 5,000 and 10,000 ppm sprayed 24 and 48 h after inoculation, day 7, 14 and 21): significant S. homoeocarpa inhibition
- infection compared with bentgrass treated with 2,500 ppm ([11]; 5,000 and 10,000 ppm, day 14 and 21 after inoculation): significantly less infection
- control against M. nivale [12]: good control
- reducing the infection of S. homoeocarpa [13]: not effective
- reduction of fungal growth ([14]; 1000 ppm): 35%
- reduction of fungal growth ([14]; 2000 ppm): about 55%
- inhibition against Fusarium ([15]; 100 ppm or lower): not very effective
- inhibition against Fusarium ([15]; 250 ppm): very good inhibition
- time for which growth of Fusarium is limited ([15]; 250 ppm): two weeks
